Consider 14 compounds from ChEMBL document CHEMBL4052735, “One-pot two-step facile synthesis of 2,3,4,5-tetra substituted dihydrooxazoles and their antimicrobial activity” (2017).

Structures are written as SMILES. Converted amounts (≈) assume the structure as drawn. The source made the active and inactive calls.

Common to all, as to type: functional
The subject of one assay is Phytophthora infestans. Put plainly: Antifungal activity against Phytophthora infestans after 48 to 72 hrs by disk diffusion method. For orientation: In agar diffusion tests the substance spreads into inoculated agar from a disc or well.
Assay [1] has as its system Staphylococcus aureus. Put plainly: Antibacterial activity against Staphylococcus aureus after 24 hrs by visual and spectrophotometric analysis.
Assay [2] relates to Staphylococcus aureus. Briefly: Bactericidal activity against Staphylococcus aureus after 24 hrs by visual and spectrophotometric analysis.
Assay [3] deals with Bacillus subtilis. Briefly: Antibacterial activity against Bacillus subtilis after 24 hrs by visual and spectrophotometric analysis.
The test system of assay [4] is Bacillus subtilis. Put plainly: Bactericidal activity against Bacillus subtilis after 24 hrs by visual and spectrophotometric analysis.
The subject of assay [5] is Escherichia coli. Briefly: Bactericidal activity against Escherichia coli after 24 hrs by visual and spectrophotometric analysis.
The test system of assay [6] is Klebsiella pneumoniae. Put plainly: Antibacterial activity against Klebsiella pneumoniae after 24 hrs by visual and spectrophotometric analysis.
Assay [7] deals with Klebsiella pneumoniae. Briefly: Bactericidal activity against Klebsiella pneumoniae after 24 hrs by visual and spectrophotometric analysis.
In assay [8] the test system is Escherichia coli. Briefly: Antibacterial activity against Escherichia coli after 24 hrs by visual and spectrophotometric analysis.
The test system of assay [9] is Staphylococcus aureus. Put plainly: Ratio of MBC to MIC against Staphylococcus aureus.
In assay [10] the test system is Bacillus subtilis. Briefly: Ratio of MBC to MIC against Bacillus subtilis.
The test system of assay [11] is Klebsiella pneumoniae. Put plainly: Ratio of MBC to MIC against Klebsiella pneumoniae.
Assay [12] has as its system Escherichia coli. Put plainly: Ratio of MBC to MIC against Escherichia coli.

As for `COc1ccc(C2OC(c3ccccc3)=C(c3ccccc3)N2NC(=S)Nc2ccc(C)cc2)cc1` (configuration not stated), the MIC (as a rule, the smallest concentration in the dilution series that meets the test's criterion for growth inhibition) in the assay with Phytophthora infestans turned out to be 14 µg/mL (≈ 28.4 µM).

With `COC1=CC(=O)C[C@@H](C)[C@]12Oc1c(Cl)c(OC)cc(OC)c1C2=O` [GRISEOFULVIN], 20 µg/mL (≈ 56.7 µM) was the least that counted as inhibitory in the assay with Phytophthora infestans (MIC).

On to `COc1ccc(C2OC(c3ccccc3)=C(c3ccccc3)N2NC(=S)Nc2ccc(Cl)cc2)cc1` (configuration not stated), for which, in the assay with Phytophthora infestans, the MIC came out at 16 µg/mL (≈ 31.1 µM).

Consider `O=C(O)c1cn(C2CC2)c2cc(N3CCNCC3)c(F)cc2c1=O` [CIPROFLOXACIN], for which the MIC with Staphylococcus aureus [1] amounted to 6.5 µg/mL (≈ 19.6 µM); in the assay on Bacillus subtilis [3], 10 µg/mL (≈ 30.2 µM); against Klebsiella pneumoniae [6], 6.25 µg/mL (≈ 18.9 µM). The MBC – broadly, the smallest concentration meeting the test's criterion for killing – against Staphylococcus aureus [2] worked out at 12.5 µg/mL (≈ 37.7 µM); with Bacillus subtilis [4] it was 25 µg/mL (≈ 75.4 µM); with Escherichia coli [5], 25 µg/mL (≈ 75.4 µM); in the assay with Klebsiella pneumoniae [7], 10.2 µg/mL (≈ 30.9 µM).

Compound `Oc1ccc(C2OC(c3ccccc3)=C(c3ccccc3)N2NC(=S)Nc2ccc(Cl)cc2)cc1` (configuration not stated) displayed an MIC in the assay with Phytophthora infestans of 16 µg/mL (≈ 32 µM).

For the compound `Cc1ccc(NC(=S)NN2C(c3ccccc3)=C(c3ccccc3)OC2c2ccc(O)cc2)cc1` (configuration not stated), the lowest concentration to inhibit growth against Phytophthora infestans (MIC) was 14 µg/mL (≈ 29.2 µM).

Consider `Oc1ccc(C2OC(c3ccccc3)=C(c3ccccc3)N2NC(=S)Nc2ccccc2Cl)cc1` (configuration not stated), for which the MIC in the assay on Staphylococcus aureus [1] is 30 µg/mL (≈ 60 µM); against Bacillus subtilis [3] it was 40 µg/mL (≈ 80 µM). The values for the MBC against Staphylococcus aureus [2] and against Bacillus subtilis [4] were 50 µg/mL (≈ 100 µM) and 100 µg/mL (≈ 200 µM), respectively. Besides, the MIC entry with Escherichia coli [8] and in the assay with Klebsiella pneumoniae [6] was “inactive” in each case. Also, the MBC entry in the assay with Escherichia coli [5] and with Klebsiella pneumoniae [7] was “inactive” in each case. The results for the Ratio with Staphylococcus aureus [9] and in the assay on Bacillus subtilis [10] were 1.6 and 2.5, respectively.

In the case of `COc1ccccc1NC(=S)NN1C(c2ccccc2)=C(c2ccccc2)OC1c1ccc(O)cc1` (configuration not stated), the MIC entry in the assay on Staphylococcus aureus [1], with Bacillus subtilis [3] and in the assay with Escherichia coli [8] was “inactive” throughout. In addition, the MBC entry with Staphylococcus aureus [2], in the assay with Bacillus subtilis [4] and in the assay on Escherichia coli [5] was “inactive” throughout. Besides, the MIC against Klebsiella pneumoniae [6] was 25 µg/mL (≈ 50.4 µM). In addition, the MBC in the assay on Klebsiella pneumoniae [7] was found to be 50 µg/mL (≈ 101 µM). Moreover, the Ratio in the assay with Klebsiella pneumoniae [11] is recorded as 2.

Regarding `COc1ccc(C2OC(c3ccccc3)=C(c3ccccc3)N2NC(=S)Nc2ccccc2C)cc1` (configuration not stated), the MIC against Staphylococcus aureus [1] was 30 µg/mL (≈ 60.8 µM); in the assay on Bacillus subtilis [3], 20 µg/mL (≈ 40.5 µM); with Klebsiella pneumoniae [6], 25 µg/mL (≈ 50.6 µM). Also, the figures for the MBC in the assay with Staphylococcus aureus [2], with Bacillus subtilis [4] and with Klebsiella pneumoniae [7] were 100 µg/mL (≈ 203 µM), 50 µg/mL (≈ 101 µM) and 50 µg/mL (≈ 101 µM), respectively. Moreover, in the assay on Escherichia coli [8], the MIC result is “inactive”. Also, in the assay on Escherichia coli [5], the MBC result is “inactive”. Besides, the Ratio in the assay with Staphylococcus aureus [9] is given as 3.3; with Bacillus subtilis [10], 2.5; with Klebsiella pneumoniae [11], 2.

`Oc1ccc(C2OC(c3ccccc3)=C(c3ccccc3)N2NC(=S)Nc2ccccc2)cc1` (configuration not stated) came in with an MIC against Phytophthora infestans of 10 µg/mL (≈ 21.5 µM).

Turning to `Cc1ccccc1NC(=S)NN1C(c2ccccc2)=C(c2ccccc2)OC1c1ccc(O)cc1` (configuration not stated), the MIC result with Staphylococcus aureus [1], in the assay on Bacillus subtilis [3] and with Escherichia coli [8] was “inactive” in each case. In addition, the MBC entry in the assay with Staphylococcus aureus [2], in the assay with Bacillus subtilis [4] and in the assay on Escherichia coli [5] was “inactive” each time. The MIC with Klebsiella pneumoniae [6] amounted to 50 µg/mL (≈ 104 µM). The compound further displayed an MBC with Klebsiella pneumoniae [7] of 100 µg/mL (≈ 209 µM). For the same compound, the Ratio in the assay on Klebsiella pneumoniae [11] came to 2.

In the case of `COc1ccc(C2OC(c3ccccc3)=C(c3ccccc3)N2NC(=S)Nc2ccccc2Cl)cc1` (configuration not stated), the MIC result in the assay on Staphylococcus aureus [1], with Bacillus subtilis [3] and with Klebsiella pneumoniae [6] was “inactive” throughout. Also, the MBC result in the assay on Staphylococcus aureus [2], in the assay with Bacillus subtilis [4] and in the assay on Klebsiella pneumoniae [7] was “inactive” each time. Further, in the assay with Escherichia coli [8], the MIC is 25 µg/mL (≈ 48.6 µM). The compound also yielded an MBC in the assay with Escherichia coli [5] of 50 µg/mL (≈ 97.3 µM). Also, the Ratio in the assay on Escherichia coli [12] is 2.

As for `COc1ccc(C2OC(c3ccccc3)=C(c3ccccc3)N2NC(=S)Nc2ccccc2OC)cc1` (configuration not stated), the MIC worked out at 40 µg/mL (≈ 78.5 µM) against Staphylococcus aureus [1] and 30 µg/mL (≈ 58.9 µM) with Bacillus subtilis [3]. For the same compound, the values for the MBC against Staphylococcus aureus [2] and with Bacillus subtilis [4] were 100 µg/mL (≈ 196 µM) and 50 µg/mL (≈ 98.1 µM), respectively. Also, the MIC entry in the assay with Escherichia coli [8] and with Klebsiella pneumoniae [6] was “inactive” throughout. In addition, the MBC result in the assay with Escherichia coli [5] and in the assay with Klebsiella pneumoniae [7] was “inactive” in each case. Further, the Ratio is listed as 2.5 with Staphylococcus aureus [9] and 1.6 in the assay with Bacillus subtilis [10].

For the compound `COc1ccc(NC(=S)NN2C(c3ccccc3)=C(c3ccccc3)OC2c2ccc(O)cc2)cc1` (configuration not stated), the lowest concentration to inhibit growth against Phytophthora infestans (MIC) was 16 µg/mL (≈ 32.3 µM).
